Measured values from the NIST ThermoML archive (doi:10.1016/j.fluid.2011.02.010).
Numbers after ± are expanded uncertainties.

Tests used:
[1] = for mass density / viscosity / speed of sound: 101 kPa; for speed of sound: Frequency=2 MHz
[2] = xn = mol fraction of the nth substance listed; settings: 101 kPa, Liquid, x2 = 0; for speed of sound: Frequency=2 MHz

CCCCn1cc[n+](C)c1.[Cl-] [1-butyl-3-methylimidazolium chloride]
[1], Liquid
Settings | mass density [kg/m3] | speed of sound [m/s] | viscosity [mPa·s]
298.15 K | 1074.43 ± 10 | 1868 ± 11 | 29.21 ± 1.9
303.15 K | 1071.38 ± 10 | 1860 ± 11 | 25.72 ± 1.7
308.15 K | 1068.32 ± 10 | 1848 ± 11 | 21.21 ± 1.4
318.15 K | 1062.14 ± 10 | 1820 ± 11 | 18.97 ± 1.2
328.15 K | 1055.89 ± 10 | 1804 ± 10 | 16.74 ± 1.1

C[S+](C)[O-] [dimethyl sulfoxide] + CCCCn1cc[n+](C)c1.[Cl-]
[2]
Settings | mass density [kg/m3] | speed of sound [m/s] | viscosity [mPa·s]
298.15 K | 1095.37 ± 10 | 1496 ± 9 | 1.99 ± 0.19
303.15 K | 1092.41 ± 10 | 1472 ± 9 | 1.8 ± 0.17
308.15 K | 1086.07 ± 10 | 1460 ± 9 | 1.65 ± 0.16
318.15 K | 1076.22 ± 10 | 1428 ± 9 | 1.38 ± 0.15
328.15 K | 1066.09 ± 10 | 1412 ± 8 | 1.04 ± 0.13

C[S+](C)[O-] [dimethyl sulfoxide]
[1], Liquid
Settings | mass density [kg/m3] | speed of sound [m/s] | viscosity [mPa·s]
298.15 K | 1095.37 ± 10 | 1496 ± 9 | 1.99 ± 0.19
303.15 K | 1092.41 ± 10 | 1472 ± 9 | 1.8 ± 0.17
308.15 K | 1086.07 ± 10 | 1460 ± 9 | 1.65 ± 0.16
318.15 K | 1076.22 ± 10 | 1428 ± 9 | 1.38 ± 0.15
328.15 K | 1066.09 ± 10 | 1412 ± 8 | 1.04 ± 0.13

C[S+](C)[O-] [dimethyl sulfoxide] + CC[NH2+]CC.O=S(=O)([O-])O
[2]
Settings | mass density [kg/m3] | speed of sound [m/s] | viscosity [mPa·s]
298.15 K | 1095.37 ± 10 | 1496 ± 9 | 1.99 ± 0.19
303.15 K | 1092.41 ± 10 | 1472 ± 9 | 1.8 ± 0.17
308.15 K | 1086.07 ± 10 | 1460 ± 9 | 1.65 ± 0.16
318.15 K | 1076.22 ± 10 | 1428 ± 9 | 1.38 ± 0.15
328.15 K | 1066.09 ± 10 | 1412 ± 8 | 1.04 ± 0.13

CC[NH2+]CC.O=S(=O)([O-])O [diethylammonium hydrogen sulfate]
[1]
Settings | Normal melting temperature, visual observation [°C] | mass density, Metastable liquid [kg/m3] | speed of sound, Metastable liquid [m/s] | viscosity, Metastable liquid [mPa·s]
298.15 K | – | 1028.39 ± 10 | 1432 ± 9 | 25.8 ± 1.7
303.15 K | – | 1023.97 ± 10 | 1408 ± 9 | 21.3 ± 1.4
308.15 K | – | 1020.54 ± 10 | 1392 ± 9 | 18.1 ± 1.2
318.15 K | – | 1012.68 ± 10 | 1356 ± 8 | 13.61 ± 0.92
328.15 K | – | 1004.83 ± 10 | 1324 ± 8 | 10.2 ± 0.7
Crystal | 81.00 ± 1 | – | – | –
